Legend:
[1] = tested on: human hair follicles; test: Human hair follicle organ culture, hair cycle staging; format: cell-based; conditions: for hair cycle stage of hair follicles (anagen) vs vehicle: 12.5 (unit not given), day 3 and day 6, FIGS. 8, 9
Protocol: Human anagen hair follicles were isolated from the skin of males undergoing hair transplantation with written informed consent. Microdissected hair follicles were amputated at the level of dermal-subcutaneous junction and equilibrated in Williams' E medium (WEM) (Life Technologies) supplemented with 2 mM L-glutamine (Life Technologies), 10 ng/ml hydrocortisone, 10 μg/ml insulin, and antibiotics (all from Sigma-Aldrich). After 24 hours, growing undamaged anagen hair follicles were selected for treatment with DMP Human hair follicles were cultured in presence of DMP (12.5 The culture medium was changed every two days with addition of DMP. Hair follicles were photographed and percentage of hair follicles at different stages of hair cycle were calculated at day 3 and day 6 of the treatment and compared to vehicle.
(§1) Human anagen hair follicles were isolated from the skin of males undergoing hair transplantation with written informed consent. […] After 24 hours, growing undamaged anagen hair follicles were selected for treatment with 2-Hep (12.5 The culture medium was changed every two days with addition of 2-Hep. Hair follicles were photographed and percentage of hair follicles at different stages of hair cycle were calculated at day 3 and day 6 of the treatment and compared to vehicle.
as §1, with “human hair follicles were cultured in presence of TPPO (150” for “2-Hep (12.5”, “TPPO.” for “2-Hep.”

[2] = tested on: human hair follicles; test: Quantitative PCR gene expression in compound-treated human hair follicles; format: cell-based; conditions: 6 hours, vs vehicle
Protocol: Total RNA was isolated using PICOPURE® RNA Isolation Kit (Applied BioSystems) according to the manufacturer's protocol. After isolation, 100 ng of total RNA was reverse-transcribed into cDNA using a TETRO® cDNA synthesis kit (Bioline). Quantitative-PCR was performed using the StepOne Plus real time PCR system (Applied Biosystems) using TAQMAN® fast advanced master mix and TAQMAN® probes for LEF1, IGF1, TGFB2 AND SFRP1 (Applied Biosystems). The amount of the aforementioned transcripts was normalized to the expression of reference gene (GAPDH) using the ΔΔCt method. Results were performed in triplicate for each experiment.
For gene expression analysis, human hair follicles were microdissected as above and treated with 2-Hep (12.5 uM) for 6 hours. Following the treatment, total RNA was isolated and processed for cDNA synthesis as above. Quantitate PCR was performed using TAQMAN® assay with probes for TGFB2 and AXIN2 (Applied Biosystems).
For gene expression analysis, human hair follicles were microdissected as above and treated with TPPO (150 uM) for 6 hours. Following the treatment, total RNA was isolated and processed for cDNA synthesis as above. Quantitate PCR was performed using TAQMAN® assay with probes for IGF1, FGF7 and TGFB2 (Applied Biosystems).

| SMILES | hair cycle stage of hair follicles (anagen) vs vehicle [1] | expression of AXIN2 ([2]; 12.5 uM, FIG. 10) | expression of TGFB2 ([2]; 12.5 uM, FIG. 10) | hair cycle stage of hair follicles (catagen) vs vehicle ([1]; 150 (unit not given), day 3 and day 6, FIG. 11) | TGFB2 transcript ([2]; 150 uM, FIG. 12) | expression level of FGF7 ([2]; 150 uM, FIG. 12) | expression level of IGF1 ([2]; 150 uM, FIG. 12) |
| --- | --- | --- | --- | --- | --- | --- | --- |
| CCCCCC(C)=O [2-Hep, 2-heptanone] | prolongs anagen | up-regulated | down-regulated | – | – | – | – |
| O=P(c1ccccc1)(c1ccccc1)c1ccccc1 [TPPO, triphenylphosphine oxide] | – | – | – | promotes catagen | up-regulated | significantly down-regulated | significantly down-regulated |
| Cc1cnc(C)cn1 [DMP, 2,5-dimethylpyrazine] | prolongs anagen | – | – | – | – | – | – |

Source: patent US20230321122A1, “ACTIVE AGENT MODULATING THE ACTIVITY OF AN ION CHANNEL FOR USE IN HAIR GROWTH REGULATION” (CUTANEON - Skin & Hair Innovations GmbH, priority 2020, published 2023)
